What was measured:
[1] = molecular target: T1, X. autotrophicus AC (acetone carboxylase, (αβγ)2) (Xanthobacter versatilis, UniProt Q8RM03+Q8RM04); assay: EPR of active-site Mn(II); […] Moessbauer; type: binding; conditions: 10 mM AMP, 1 mM MgCl2, pH 7.6, 12 K (EPR); Mn(II)-bound enzyme
T1 construct: gene acxB; recombinant in E. coli BL21(DE3), pET-Duet vectors; N-terminal 6-His tag on beta subunit; (αβγ)2 heterohexamer; AMP site in beta, metal site in alpha; with Acetone carboxylase gamma subunit
T1 sequence (Q8RM03 1-776): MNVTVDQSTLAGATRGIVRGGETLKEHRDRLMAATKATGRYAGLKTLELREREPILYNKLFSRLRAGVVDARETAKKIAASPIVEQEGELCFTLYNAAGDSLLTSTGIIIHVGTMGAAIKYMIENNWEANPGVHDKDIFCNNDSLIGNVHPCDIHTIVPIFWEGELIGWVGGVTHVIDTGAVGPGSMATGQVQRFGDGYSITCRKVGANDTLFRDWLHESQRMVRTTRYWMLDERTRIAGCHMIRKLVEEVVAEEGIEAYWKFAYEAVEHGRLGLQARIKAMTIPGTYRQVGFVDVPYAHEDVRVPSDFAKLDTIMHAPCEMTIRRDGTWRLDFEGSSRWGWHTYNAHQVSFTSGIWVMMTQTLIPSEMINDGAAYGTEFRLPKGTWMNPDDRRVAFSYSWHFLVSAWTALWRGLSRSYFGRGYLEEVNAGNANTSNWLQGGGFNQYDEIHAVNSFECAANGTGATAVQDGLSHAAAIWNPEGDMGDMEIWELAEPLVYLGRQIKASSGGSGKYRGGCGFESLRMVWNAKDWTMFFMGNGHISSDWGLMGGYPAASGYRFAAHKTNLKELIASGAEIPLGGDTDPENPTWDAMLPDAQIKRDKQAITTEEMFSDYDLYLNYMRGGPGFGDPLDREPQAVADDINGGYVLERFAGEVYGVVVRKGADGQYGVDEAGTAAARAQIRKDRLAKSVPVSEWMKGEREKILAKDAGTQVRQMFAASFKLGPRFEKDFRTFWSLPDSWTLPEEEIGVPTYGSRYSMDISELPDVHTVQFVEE
T1 sequence (Q8RM04 1-717): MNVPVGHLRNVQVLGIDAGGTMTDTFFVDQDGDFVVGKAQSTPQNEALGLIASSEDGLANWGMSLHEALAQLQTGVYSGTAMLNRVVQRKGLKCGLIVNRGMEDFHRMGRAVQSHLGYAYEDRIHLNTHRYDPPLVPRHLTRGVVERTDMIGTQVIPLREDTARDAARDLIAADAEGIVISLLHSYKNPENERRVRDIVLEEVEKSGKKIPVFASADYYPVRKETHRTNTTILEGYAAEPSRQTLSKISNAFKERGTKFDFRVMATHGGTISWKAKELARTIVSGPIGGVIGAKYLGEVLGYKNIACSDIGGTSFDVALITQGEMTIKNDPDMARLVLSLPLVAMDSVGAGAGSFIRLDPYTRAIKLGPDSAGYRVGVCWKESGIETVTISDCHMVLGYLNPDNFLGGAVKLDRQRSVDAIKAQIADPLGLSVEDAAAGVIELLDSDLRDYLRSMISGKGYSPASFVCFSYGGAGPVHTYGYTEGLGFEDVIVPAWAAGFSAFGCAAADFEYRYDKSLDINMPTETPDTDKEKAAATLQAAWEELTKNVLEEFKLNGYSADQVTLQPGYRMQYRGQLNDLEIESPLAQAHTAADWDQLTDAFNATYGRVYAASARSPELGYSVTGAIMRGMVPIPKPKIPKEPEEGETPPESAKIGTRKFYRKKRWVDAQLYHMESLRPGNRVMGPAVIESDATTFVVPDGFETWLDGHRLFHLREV
T1 sequence (Q8RM02 2-168 partner): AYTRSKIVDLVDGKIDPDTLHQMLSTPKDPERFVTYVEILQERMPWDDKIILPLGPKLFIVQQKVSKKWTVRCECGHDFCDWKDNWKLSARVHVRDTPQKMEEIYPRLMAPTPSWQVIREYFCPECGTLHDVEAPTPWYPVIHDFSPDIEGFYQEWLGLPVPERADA

[2] = molecular target: T2, A. aromaticum AC (acetone carboxylase, (αβγ)2) (Aromatoleum aromaticum, UniProt Q5P1N4+Q5P1N5); assay: […] Moessbauer; EPR of Mn(II)-reconstituted enzyme; type: binding; conditions: 1 mM AMP, pH 7.6, 57Fe(II)-reconstituted, 80 K (Moessbauer); 10 mM AMP, 1 mM MgCl2 (EPR)
T2 construct: gene acxB; recombinant in E. coli BL21(DE3), pET-Duet vectors; N-terminal 6-His tag on beta subunit; (αβγ)2 heterohexamer; with Acetone carboxylase gamma subunit
T2 sequence (Q5P1N4 1-774): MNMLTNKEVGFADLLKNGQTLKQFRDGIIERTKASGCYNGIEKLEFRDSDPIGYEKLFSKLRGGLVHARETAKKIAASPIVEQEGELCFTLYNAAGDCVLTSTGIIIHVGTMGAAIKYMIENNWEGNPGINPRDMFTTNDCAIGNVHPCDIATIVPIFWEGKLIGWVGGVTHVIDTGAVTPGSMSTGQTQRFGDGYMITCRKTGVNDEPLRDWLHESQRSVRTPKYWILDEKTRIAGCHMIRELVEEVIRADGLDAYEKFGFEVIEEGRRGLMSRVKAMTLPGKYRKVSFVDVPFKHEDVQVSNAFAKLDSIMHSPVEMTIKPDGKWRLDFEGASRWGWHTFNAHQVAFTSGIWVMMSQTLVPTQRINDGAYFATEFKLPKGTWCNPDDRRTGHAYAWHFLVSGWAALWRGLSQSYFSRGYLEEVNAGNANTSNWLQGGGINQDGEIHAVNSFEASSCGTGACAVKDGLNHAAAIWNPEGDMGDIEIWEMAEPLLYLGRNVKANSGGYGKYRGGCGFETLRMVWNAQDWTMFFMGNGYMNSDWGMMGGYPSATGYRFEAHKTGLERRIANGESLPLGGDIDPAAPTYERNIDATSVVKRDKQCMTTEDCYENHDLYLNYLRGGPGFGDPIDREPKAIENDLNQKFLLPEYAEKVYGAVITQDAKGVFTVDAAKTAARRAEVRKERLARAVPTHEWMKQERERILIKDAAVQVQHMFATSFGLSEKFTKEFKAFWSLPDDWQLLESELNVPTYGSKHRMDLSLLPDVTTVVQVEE
T2 sequence (Q5P1N5 1-716): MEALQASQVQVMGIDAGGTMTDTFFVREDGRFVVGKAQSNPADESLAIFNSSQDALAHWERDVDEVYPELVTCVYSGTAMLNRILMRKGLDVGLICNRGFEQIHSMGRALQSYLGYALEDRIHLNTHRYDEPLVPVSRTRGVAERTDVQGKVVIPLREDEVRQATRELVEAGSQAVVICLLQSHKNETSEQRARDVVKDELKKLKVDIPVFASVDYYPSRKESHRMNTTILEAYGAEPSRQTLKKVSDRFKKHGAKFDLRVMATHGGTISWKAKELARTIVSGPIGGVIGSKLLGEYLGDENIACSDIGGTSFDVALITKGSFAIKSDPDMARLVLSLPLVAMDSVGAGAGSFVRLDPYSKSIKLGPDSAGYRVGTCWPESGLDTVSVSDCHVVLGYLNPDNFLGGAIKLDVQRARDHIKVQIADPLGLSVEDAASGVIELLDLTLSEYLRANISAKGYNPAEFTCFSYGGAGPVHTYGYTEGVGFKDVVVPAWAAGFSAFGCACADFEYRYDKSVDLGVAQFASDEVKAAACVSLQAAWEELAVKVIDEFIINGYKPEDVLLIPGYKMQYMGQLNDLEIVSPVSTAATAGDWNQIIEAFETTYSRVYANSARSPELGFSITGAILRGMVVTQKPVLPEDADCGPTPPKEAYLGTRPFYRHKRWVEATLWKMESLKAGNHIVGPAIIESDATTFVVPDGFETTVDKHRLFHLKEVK
T2 sequence (Q5P1N3 1-168 partner): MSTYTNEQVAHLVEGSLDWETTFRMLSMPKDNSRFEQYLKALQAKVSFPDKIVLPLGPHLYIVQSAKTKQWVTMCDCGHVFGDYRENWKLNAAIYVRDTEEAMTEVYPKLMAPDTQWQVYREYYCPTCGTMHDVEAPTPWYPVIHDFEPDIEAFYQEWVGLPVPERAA

Nc1ncnc2c1ncn2[C@@H]1O[C@H](COP(=O)(O)O)[C@@H](O)[C@H]1O [AMP]
EPR of active-site Mn(II); 57Fe Moessbauer [1]: Upon the addition of MgAMP, the apparent Mn(II) signal sharpened and intensified
57Fe Moessbauer; EPR of Mn(II)-reconstituted enzyme [2]: three of which (blue, red, and orange) were affected by the addition of AMP
